Data as given in patent US6562853B2, “2,5-dioxo-3-(2-propynyl)imidazolidin-1-ylmethyl 2,2-dimethyl-3-(alenyl) cyclopropane carboxylate compounds and pesticidal methods and compositions utilizing the same” (Sumitomo Chemical Company, Limited, priority 2001, dated 2003).

Experiments:
[1] = test system: adult female common mosquitoes; experiment: Knockdown of common mosquitoes by oily formulation sprayed into 70 cm cubic chamber (Test Example 3); assay type: in vivo, common mosquito (Culex pipiens pallens); conditions: 0.00625% oily formulation, 0.7 ml sprayed into 70 cm cubic chamber; 10 adult female common mosquitoes; counted over 10 minutes
Description: Three (3) 0.00625% oily formulations were produced with the following pesticidal compounds: […]
In the compound encompassed by formula (A), the weight ratio of trans isomers thereof to the cis isomers thereof is 8:2. The 0.00625% oily formulations were produced by dissolving, respectively, 0.00625 parts of the above pesticidal compounds in 10 parts of dichloromethane and by mixing each of the resulting mixture with 89.99375 parts of deodorized kerosene.
Ten (10) adult female common mosquitoes were released in each of the cubic chambers having a side length of 70 cm. Seven-tenths milliliters (0.7 ml) of the 0.00625% oily formulations were then sprayed, respectively, into each of the chambers from the side windows of the chambers, utilizing spray guns set to a pressure of 8.8×10^4 Pa. The numbers of knockdowned common mosquitoes were counted periodically over 10 minutes. The times utilized to knockdown half of the tested common mosquitoes (KT50) were determined from the number of knockdowned common mosquitoes.

[2] = test system: Adult houseflies; experiment: Knockdown of houseflies by oily formulation sprayed into 70 cm cubic chamber (Test Example 1); assay type: in vivo, housefly (Musca domestica); conditions: 0.025% oily formulation, 0.7 ml sprayed into 70 cm cubic chamber; 5 male and 5 female adult houseflies; counted over 10 minutes
Procedure: A 0.025% oily formulation was produced by dissolving 0.025 parts of the present invention compound 1 in 10 parts of dichloromethane and by mixing the resulting mixture with 89.975 parts of deodorized kerosene.
Adult houseflies (5 of each male and female) were released in a cubic chamber having a side length of 70 cm. Seven-tenths milliliters (0.7 ml) of the 0.025% oily formulation was then sprayed into the chamber from a side window of the chamber, utilizing a spray gun set to a pressure of 8.8×10^4 Pa. The number of knockdowned houseflies was counted periodically over 10 minutes. The time utilized to knockdown half of the tested houseflies (KT50) was determined from the number of knockdowned houseflies. The KT50 was 2.3 minutes.

[3] = test system: Adult houseflies; experiment: Knockdown rate of houseflies in plastic cup after direct spray of oily formulation (Test Example 2); assay type: in vivo, housefly (Musca domestica); conditions: 0.1% oily formulation (table), 0.5 ml sprayed from about 30 cm above cup; 10 adult houseflies; counted 10 seconds thereafter
Procedure: A 0.1% oily formulation was produced by dissolving 0.1 part of the present invention compound 1 in 10 parts of dichloromethane and by mixing the resulting mixture with 89.9 parts of deodorized kerosene.
Ten (10) adult houseflies (5 of each male and female) were placed in a 650 ml plastic cup. The opening of the plastic cup was covered with a nylon mesh to confine the houseflies to the plastic cup. The plastic cup was placed on top of a metal screen placed in a metal chamber having the dimensions 46 cm×46 cm×70 cm. Five-tenths milliliters (0.5 ml) of the […] oily formulation was then sprayed from about 30 cm above the top area of the plastic cup, utilizing a spray gun set to a pressure of 8.8×10^4 Pa. The number of knockdowned houseflies were counted 10 seconds thereafter. The knockdown rate was determined from the number of knockdowned houseflies achieved. The knockdown rate was 95%.

For `C#CCN1CC(=O)N(COC(=O)C2C(C=C(C)C)C2(C)C)C1=O` (single isomer, unassigned) [Compound c, reference compound], the “KT50 (time utilized to knockdown half of the tested common mosquitoes)” value [1] was 2.9 min.
In the case of `C#CCN1CC(=O)N(COC(=O)[C@@H]2[C@H](/C=C\C)C2(C)C)C1=O` [Present invention compound 3, 2,5-dioxo-3-(2-propynyl)imidazolidin-1-ylmethyl (1R)-cis-2,2-dimethyl-3-((Z)1-propenyl)cyclopropanecarboxylate], the “KT50 (time utilized to knockdown half of the tested common mosquitoes)” value [1] is reported as 1.4 min.
In the case of `C#CCN1CC(=O)N(COC(=O)[C@@H]2[C@@H](/C=C\C)C2(C)C)C1=O` [Present invention compound 1, 2,5-dioxo-3-(2-propynyl)imidazolidin-1-ylmethyl (1R)-trans-2,2-dimethyl-3-((Z)1-propenyl)cyclopropanecarboxylate], the “KT50 (time utilized to knockdown half of the tested houseflies)” value [2] is reported as 2.3 min, the Knockdown rate [3] is reported as 95% and the “KT50 (time utilized to knockdown half of the tested common mosquitoes)” value [1] is reported as 0.99 min.
